Emax, EC50 and logD data for 15 molecules are collected here from ChEMBL document CHEMBL1833844, “Sulfonamides as selective oestrogen receptor β agonists” (Bioorg Med Chem Lett, 2011).

Molecules are shown by their SMILES. Bounds are passed on as bounds.

For data set [1], the target named is T1, Estrogen receptor beta (Homo sapiens, UniProt Q92731). Kind of data set: Agonist activity at ERbeta expressed in […] cells co-expressing beta-lactamase at 10 uM after 18 hrs by beta-lactamase reporter gene assay relative to estradiol. Type of data set: functional, cell-based.
T1 sequence (Q92731 whole entry): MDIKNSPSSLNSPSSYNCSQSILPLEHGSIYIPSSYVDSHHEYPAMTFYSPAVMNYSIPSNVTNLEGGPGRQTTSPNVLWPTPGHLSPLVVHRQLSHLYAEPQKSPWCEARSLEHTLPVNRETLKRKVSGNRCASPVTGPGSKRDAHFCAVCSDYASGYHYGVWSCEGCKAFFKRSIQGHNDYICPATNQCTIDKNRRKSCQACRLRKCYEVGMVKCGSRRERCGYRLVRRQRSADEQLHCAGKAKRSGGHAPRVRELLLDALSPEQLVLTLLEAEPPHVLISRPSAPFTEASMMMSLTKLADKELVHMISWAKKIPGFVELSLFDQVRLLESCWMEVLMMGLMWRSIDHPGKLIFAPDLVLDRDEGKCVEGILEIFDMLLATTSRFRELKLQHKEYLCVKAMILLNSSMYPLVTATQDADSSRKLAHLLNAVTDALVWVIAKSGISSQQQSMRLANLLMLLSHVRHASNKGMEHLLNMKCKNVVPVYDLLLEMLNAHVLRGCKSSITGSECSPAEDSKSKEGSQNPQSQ
Data set [2] addresses T2, Estrogen receptor (Homo sapiens) (UniProt P03372).
T2 sequence (whole entry): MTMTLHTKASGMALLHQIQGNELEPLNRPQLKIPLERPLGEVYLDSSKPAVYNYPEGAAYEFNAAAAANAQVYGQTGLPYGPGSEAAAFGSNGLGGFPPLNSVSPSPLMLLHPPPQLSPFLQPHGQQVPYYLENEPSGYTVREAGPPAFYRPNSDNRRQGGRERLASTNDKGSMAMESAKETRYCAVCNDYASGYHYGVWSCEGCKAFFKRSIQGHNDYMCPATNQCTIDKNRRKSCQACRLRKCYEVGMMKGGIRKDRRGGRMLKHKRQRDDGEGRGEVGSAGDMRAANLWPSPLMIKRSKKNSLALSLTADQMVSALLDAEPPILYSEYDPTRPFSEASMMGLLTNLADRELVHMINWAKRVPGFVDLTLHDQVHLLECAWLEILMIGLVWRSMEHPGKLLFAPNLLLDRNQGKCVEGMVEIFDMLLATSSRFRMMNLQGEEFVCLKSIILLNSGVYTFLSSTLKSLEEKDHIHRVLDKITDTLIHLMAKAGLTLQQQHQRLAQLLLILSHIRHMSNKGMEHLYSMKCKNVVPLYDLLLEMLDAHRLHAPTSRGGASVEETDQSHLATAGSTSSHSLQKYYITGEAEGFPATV
Kind of data set: Agonist activity at ERalpha expressed in HEK cells co-expressing beta-lactamase at 10 uM after 18 hrs by beta-lactamase reporter gene assay relative to estradiol. The class given is functional, cell-based. The settings on record: HEK293.

In a further data set the target is T3, Estrogen receptor (Homo sapiens, UniProt P03372).
T3 sequence (P03372 whole entry): T2 sequence (whole entry)
Kind of data set: Agonist activity at ERalpha expressed in HEK cells co-expressing beta-lactamase after 18 hrs by beta-lactamase reporter gene assay. The class given is functional, cell-based, HEK293.

Data set [3] addresses T1, Estrogen receptor beta. Briefly: Agonist activity at ERbeta expressed in […] cells co-expressing beta-lactamase after 18 hrs by beta-lactamase reporter gene assay. Type of data set: functional, cell-based.
Data set [4] in a line: Octanol-buffer partition coefficient, log D of the compound at pH 7.4. Type of data set: physicochemical.

In the case of `O=S(=O)(c1ccc(O)cc1)N(CCC(F)(F)F)c1ccc(O)cc1`, the values for the Emax (on Estrogen receptor beta [1]; in data set [2]) were 104% and 87%, respectively. The EC50 on Estrogen receptor amounted to 357 nM; on Estrogen receptor beta [3], 43 nM.
For the molecule `O=S(=O)(c1ccc(O)cc1)N1[C@@H]2CC[C@H]1C[C@H](CO)C2`, the Emax at Estrogen receptor beta [1] came out at 111%; in data set [2], 94%. Further, the EC50 at Estrogen receptor is 3500 nM; at Estrogen receptor beta [3] it was more than 3000 nM.
Molecule `Cc1ccc(O)c(CCNS(=O)(=O)c2ccc(O)cc2)c1` gave an Emax at Estrogen receptor beta [1] of 73%. On Estrogen receptor beta [3], this molecule registered an EC50 of more than 2400 nM.
As to `C[C@](O)(CN(C1CC1)S(=O)(=O)c1ccc(O)cc1)c1ccccc1`, in data set [4], the logD stood at 2.7. Also, the values for the Emax (at Estrogen receptor beta [1]; in data set [2]) were 48% and 107%, respectively. The results for the EC50 on Estrogen receptor and on Estrogen receptor beta [3] were more than 5400 nM and 79 nM, respectively.
As to `C[C@@](O)(CN(C1CC1)S(=O)(=O)c1ccc(O)cc1)c1ccccc1`, the Emax on Estrogen receptor beta [1] was less than 20%; in data set [2], 85%. Further, the EC50 at Estrogen receptor is more than 4560 nM; at Estrogen receptor beta [3], 110 nM.
For `CN(CC(C)(O)c1ccccc1)S(=O)(=O)c1ccc(O)cc1` (racemic), the Emax at Estrogen receptor beta [1] amounted to 49%. Also, the EC50 on Estrogen receptor is more than 3200 nM; on Estrogen receptor beta [3] it was 1100 nM.
Turning to `CC(C)N(CC(C)(O)c1ccccc1)S(=O)(=O)c1ccc(O)cc1` (racemic), the logD in data set [4] came out at 2.9. In addition, the Emax was found to be 44% at Estrogen receptor beta [1] and 89% in data set [2]. For the same molecule, the EC50 on Estrogen receptor was more than 2610 nM; on Estrogen receptor beta [3], 418 nM.
The corresponding values for `CCCCN(CC(C)(O)c1ccccc1)S(=O)(=O)c1ccc(O)cc1` (racemic) are 3.4, less than 30%, 82%, more than 1100 nM and 84 nM.
The corresponding values for `CC(O)(CN(C1CC1)S(=O)(=O)c1ccc(O)cc1)c1ccccc1` (racemic) are 2.5, 47%, 79%, 2310 nM and 101 nM.
The corresponding values for `O=S(=O)(c1ccc(O)cc1)N(CC(O)(c1ccccc1)C(F)(F)F)C1CC1` (racemic) are 3.2, 43%, 66%, more than 2680 nM and 14 nM.
As for `CCCCC(O)(CN(C1CC1)S(=O)(=O)c1ccc(O)cc1)c1ccccc1` (racemic), in data set [4], the logD came out at 3.9. The results for the Emax (at Estrogen receptor beta [1]; in data set [2]) were 36% and 82%, respectively. The EC50 at Estrogen receptor is more than 6510 nM; on Estrogen receptor beta [3], 65 nM.
In the case of `CC(O)(CN(C1CC1)S(=O)(=O)c1ccc(O)cc1)c1ccccc1F` (racemic), the logD in data set [4] amounted to 3. The molecule also had an Emax on Estrogen receptor beta [1] of 49%. Moreover, the concentration giving a half-maximal response (EC50) was more than 10000 nM on Estrogen receptor and 48 nM at Estrogen receptor beta [3].
`CC(O)(CN(C1CC1)S(=O)(=O)c1ccc(O)cc1)c1c(F)cccc1F` (racemic) returned a logD in data set [4] of 2.9. Also, the Emax at Estrogen receptor beta [1] amounted to 45%; in data set [2] it was 75%. The EC50 on Estrogen receptor is 3800 nM; at Estrogen receptor beta [3], 51 nM.
As to `CC(O)(CN(C1CC1)S(=O)(=O)c1ccc(O)cc1)c1cc[nH]n1` (racemic), the logD in data set [4] amounted to 1.3. On Estrogen receptor beta [1], this molecule had a maximal response (Emax) of 86%. Moreover, the figures for the EC50 at Estrogen receptor and at Estrogen receptor beta [3] were more than 10000 nM and 1480 nM, respectively.
In data set [4], `CC(O)(CN(C1CC1)S(=O)(=O)c1ccc(O)cc1)c1ccc(O)cc1` (racemic) returned a logD of 2. The same molecule had an Emax at Estrogen receptor beta [1] of 82%. In addition, the EC50 on Estrogen receptor is more than 4800 nM; on Estrogen receptor beta [3], 437 nM.
